{"source": "patent EP0923943A1", "about": "“MICELLAR AQUEOUS COMPOSITION AND METHOD FOR SOLUBILIZING HYDROPHOBIC DRUG” (TAISHO PHARMACEUTICAL CO. LTD, priority 1996, dated 1997)", "assay": "Saturation solubility of taxol", "type": "physicochemical", "conditions": "pH 7.4, aqueous buffer"}
{"compound": "CC(=O)O[C@H]1C(=O)[C@@]2(C)[C@H]([C@H](OC(=O)c3ccccc3)[C@]3(O)C[C@H](OC(=O)[C@H](O)[C@@H](NC(=O)c4ccccc4)c4ccccc4)C(C)=C1C3(C)C)[C@]1(OC(C)=O)CO[C@@H]1C[C@@H]2O", "note": "[taxol]", "values": [{"measurement": "solubility", "value": 0.32, "unit": "µg/mL"}]}
